Read-outs that look alike come from different tables or passages of the source.
Key:
HER2 enzyme = molecular target: T1, HER2 enzyme (Homo sapiens, UniProt P04626); test: Biochemical kinase assay for HER2 (Reaction Biology Corp.); settings: ATP 10 μM, 3-fold dilution from 10 μM
T1 construct: purchased Reaction Biology Corp. (San Diego, USA); outsourced assay service
Protocol: A biochemical kinase assay for HER2 was conducted through Reaction Biology Corp. (San Diego, USA).

BT-474 cancer cells = test: Inhibition of BT-474 cell proliferation (CellTiter-Glo); format: cell-based; settings: Homo sapiens, BT-474 cells, 120 hours
How it was run: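 BT-474 cells in RPMI-1640 with 20% FBS, seeded 48 h before dosing with 11 three-fold dilutions (final 0.2 nM to 10 μM). Viability read by CellTiter-Glo luminescence 120 h after treatment, triplicate tests. GI50 derived from growth rate (%) versus control.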

N-87 cancer cells = test: Inhibition of N-87 cell proliferation (CellTiter-Glo); format: cell-based; settings: N-87 cells, 72 hours
Protocol: N-87 cancer cells were cultured by using RPMI-1640 medium with 10% FBS. The N-87 cancer cells were seeded to a white clear bottom 96 well plate (Corning) at 5,000 cells per well 24 hours before the […] cancer cells were treated with Example Compounds. Example Compounds were diluted in dimethylsulfoxide (5-fold diluted, total 11 concentrations) and 0.5 μL each was injected so that the final concentration was […]. For the measurement of living cells, the cells were stored at room temperature for 10 minutes using the CellTiter-Glo cell viability reagent (Promega) after 72 hours after the treatment of Example Compounds, and then the luminescence intensity was measured using the reader (SynergyNeo, Biotek).
The result value was calculated as a cell growth rate (%) compared to a control group. Graphs were plotted and GI50 values were calculated using the GraphPad Prism version 8.0 program, and the results are shown in Table 18 below.

Ba/F3 HER2 WT cells = test: Inhibition of transduced Ba/F3 cell proliferation, HER2 WT; format: cell-based; settings: Mus musculus, BaF3, 72 hours, CellTiter-Glo
Protocol: (§1) Transduced Ba/F3 cells were cultured by adding 1 μg/mL of puromycin (Invitrogen) to a medium (RPMI-1640) containing 10% fetal bovine serum (FBS). 3,000 Ba/F3 HER2 WT cells were seeded to a white clear bottom 96 well plate (Corning) 24 hours before the Ba/F3 HER2 WT cells were treated with Example compounds. For Ba/F3 HER2 L755S, Ba/F3 HER2 L755P, Ba/F3 HER2 T862A, and Ba/F3 HER2 L869R/T798I cells, 5,000 cells each were seeded to a white clear bottom 96 well plate (Corning) 24 hours before the cells were treated with the compounds. Example Compounds were diluted in dimethylsulfoxide (3-fold diluted, total 11 concentrations) and 0.5 μL each was injected so that the final concentration was 0.2 nM to 10 μM. For the measurement of living cells, the cells were stored at room temperature for 10 minutes using the CellTiter-Glo cell viability reagent (Promega) after 72 hours after the treatment of Example Compounds, and then the luminescence intensity was measured using the reader (SynergyNeo, Biotek). Each test was repeated twice.
(§2) The result value was calculated as a cell growth rate (%) compared to a control group, and the GI50 values were calculated using the software (GraphPad Prism version 8.0), and the results are shown in Table 19 below.

Ba/F3 HER2 L755S cells = test: Inhibition of transduced Ba/F3 cell proliferation, HER2 L755S; format: cell-based; settings: Mus musculus, BaF3, 72 hours, CellTiter-Glo
Protocol: as §1, §2

Ba/F3 HER2 L755P cells = test: Inhibition of transduced Ba/F3 cell proliferation, HER2 L755P; format: cell-based; settings: Mus musculus, BaF3, 72 hours, CellTiter-Glo
Protocol: as §1, §2

Ba/F3 HER2 T862A cells = test: Inhibition of transduced Ba/F3 cell proliferation, HER2 T862A; format: cell-based; settings: Mus musculus, BaF3, 72 hours, CellTiter-Glo
Protocol: as §1, §2

[1] = test system: Ba/F3 HER2 L869R/T798I cells; test: Inhibition of transduced Ba/F3 cell proliferation, HER2 L869R/T798I; format: cell-based; settings: Mus musculus, BaF3, 72 hours, CellTiter-Glo
Protocol: as §1, §2

HER2 mutant cancers = settings: cited from earlier work; for response of patients with HER2 mutation: phase 1 and 2 clinical trials; for objective response rate (ORR): SUMMIT clinical trial

T1 sequence (P04626 23-1255): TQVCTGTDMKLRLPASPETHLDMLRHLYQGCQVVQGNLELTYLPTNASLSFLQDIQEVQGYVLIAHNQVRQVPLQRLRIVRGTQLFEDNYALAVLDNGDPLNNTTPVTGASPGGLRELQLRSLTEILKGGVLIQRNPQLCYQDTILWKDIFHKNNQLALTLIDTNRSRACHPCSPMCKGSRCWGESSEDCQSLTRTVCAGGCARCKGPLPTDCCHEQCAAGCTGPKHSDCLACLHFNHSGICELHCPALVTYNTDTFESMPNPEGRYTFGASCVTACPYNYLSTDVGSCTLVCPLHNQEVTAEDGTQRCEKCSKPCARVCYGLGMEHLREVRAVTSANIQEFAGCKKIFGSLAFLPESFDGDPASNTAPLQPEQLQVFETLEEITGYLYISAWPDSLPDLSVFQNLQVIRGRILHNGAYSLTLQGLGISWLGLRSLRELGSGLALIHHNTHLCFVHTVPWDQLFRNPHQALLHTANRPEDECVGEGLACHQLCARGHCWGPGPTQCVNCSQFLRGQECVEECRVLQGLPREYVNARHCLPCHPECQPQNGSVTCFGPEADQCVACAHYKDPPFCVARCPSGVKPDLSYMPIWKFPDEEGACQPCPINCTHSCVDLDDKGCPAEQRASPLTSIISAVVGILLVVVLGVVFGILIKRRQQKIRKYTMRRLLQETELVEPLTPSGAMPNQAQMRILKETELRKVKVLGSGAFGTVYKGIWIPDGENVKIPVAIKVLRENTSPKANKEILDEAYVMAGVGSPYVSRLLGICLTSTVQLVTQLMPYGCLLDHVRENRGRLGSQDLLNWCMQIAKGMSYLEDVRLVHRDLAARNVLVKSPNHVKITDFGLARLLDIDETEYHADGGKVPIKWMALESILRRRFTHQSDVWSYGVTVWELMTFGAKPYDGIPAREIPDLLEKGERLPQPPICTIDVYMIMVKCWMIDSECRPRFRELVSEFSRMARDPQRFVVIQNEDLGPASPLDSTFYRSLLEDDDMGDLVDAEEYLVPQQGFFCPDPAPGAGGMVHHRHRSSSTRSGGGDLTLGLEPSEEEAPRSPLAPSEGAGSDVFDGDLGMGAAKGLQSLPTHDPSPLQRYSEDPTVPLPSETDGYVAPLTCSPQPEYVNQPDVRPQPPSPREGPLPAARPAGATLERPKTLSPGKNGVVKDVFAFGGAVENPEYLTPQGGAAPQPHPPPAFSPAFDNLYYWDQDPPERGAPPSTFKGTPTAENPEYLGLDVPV

SMILES	IC50 (HER2 enzyme)	GI50 (BT-474 cancer cells)	GI50 (N-87 cancer cells)	further results
C=CC(=O)N1CCC(Nc2cc3c(Nc4cc(Cl)c(Oc5cccc(F)c5)cc4OC)ncnc3cc2OC)CC1 [Example 2, 1-(4-((4-((5-chloro-4-(3-fluorophenoxy)-2-methoxyphenyl)amino)-7-methoxyquinazolin-6-yl)amino)piperidin-1-yl)prop-2-en-1-one]	≤ 50 nM	≤ 50 nM	≤ 50 nM	
C=CC(=O)N1CCC(Oc2cc3c(Nc4cc(Cl)c(Oc5cccc(F)c5)cc4OC)ncnc3cc2OC)CC1 [Example 8, 1-(4-((4-((5-chloro-4-(3-fluorophenoxy)-2-methoxyphenyl)amino)-7-methoxyquinazolin-6-yl)oxy)piperidin-1-yl)prop-2-en-1-one]	≤ 50 nM	≤ 50 nM	≤ 50 nM	
COc1cc2ncnc(Nc3cc(Cl)c(Oc4cccc(F)c4)cc3OC)c2cc1NC(=O)/C=C/CN(C)C [Example 25, (E)-N-(4-((5-chloro-4-(3-fluorophenoxy)-2-methoxyphenyl)amino)-7-methoxyquinazolin-6-yl)-4-(dimethylamino)but-2-enamide]	≤ 50 nM	≤ 50 nM	≤ 50 nM	
COc1cc2ncnc(Nc3cc(C)c(Oc4ccn5ncnc5c4)cc3OC)c2cc1NC(=O)/C=C/[C@H]1CCCN1C [Example 29, (R,E)-N-(4-((4-([1,2,4]triazolo[1,5-a]pyridin-7-yloxy)-2-methoxy-5-methylphenyl)amino)-7-methoxyquinazolin-6-yl)-3-(1-methylpyrrolidin-2-yl)acrylamide]	≤ 50 nM	≤ 50 nM	≤ 50 nM	
COc1cc2ncnc(Nc3cc(Cl)c(Oc4cccc(F)c4)cc3OC)c2cc1NC(=O)/C=C/[C@H]1CCCN1C [Example 30, (R,E)-N-(4-((5-chloro-4-(3-fluorophenoxy)-2-methoxyphenyl)amino)-7-methoxyquinazolin-6-yl)-3-(1-methylpyrrolidin-2-yl)acrylamide]	≤ 50 nM	≤ 50 nM	≤ 50 nM	
COc1cc2ncnc(Nc3cc(Cl)c(Oc4ccccn4)cc3OC)c2cc1NC(=O)/C=C/[C@H]1CCCN1C [Example 33, (R,E)-N-(4-((5-chloro-2-methoxy-4-(pyridin-2-yloxy)phenyl)amino)-7-methoxyquinazolin-6-yl)-3-(1-methylpyrrolidin-2-yl)acrylamide]	≤ 50 nM	≤ 50 nM	≤ 50 nM	
COc1cc2ncnc(Nc3cc(Cl)c(Oc4cccc(F)c4)cc3OC)c2cc1NC(=O)/C(F)=C\[C@H]1CCCN1C [Example 42, (R,E)-N-(4-((5-chloro-4-(3-fluorophenoxy)-2-methoxyphenyl)amino)-7-methoxyquinazolin-6-yl)-2-fluoro-3-(1-methylpyrrolidin-2-yl)acrylamide]	≤ 50 nM	≤ 50 nM	≤ 50 nM	GI50 (Ba/F3 HER2 WT cells): ≤ 50 nM; GI50 (Ba/F3 HER2 L755S cells): ≤ 50 nM; GI50 (Ba/F3 HER2 L755P cells): ≤ 50 nM; GI50 (Ba/F3 HER2 T862A cells): ≤ 50 nM; GI50 [1]: ≤ 50 nM
COc1cc2ncnc(Nc3cc(F)c(Oc4ccn5ncnc5c4)cc3OC)c2cc1NC(=O)/C(F)=C/[C@H]1CCCN1C [Example 50, (R,Z)—N-(4-((4-([1,2,4]triazolo[1,5-a]pyridin-7-yloxy)-5-fluoro-2-methoxyphenyl)amino)-7-methoxyquinazolin-6-yl)-2-fluoro-3-(1-methylpyrrolidin-2-yl)acrylamide]	≤ 50 nM	≤ 50 nM	≤ 50 nM	GI50 (Ba/F3 HER2 WT cells): ≤ 50 nM; GI50 (Ba/F3 HER2 L755S cells): ≤ 50 nM; GI50 (Ba/F3 HER2 L755P cells): ≤ 50 nM; GI50 (Ba/F3 HER2 T862A cells): ≤ 50 nM; GI50 [1]: ≤ 50 nM
COc1cc2ncnc(Nc3cc(C(F)(F)F)c(Oc4ccn5ncnc5c4)cc3OC)c2cc1NC(=O)/C(F)=C/[C@H]1CCCN1C [Example 54, (R,Z)—N-(4-((4-([1,2,4]triazolo[1,5-a]pyridin-7-yloxy)-2-methoxy-5-(trifluoromethyl)phenyl)amino)-7-methoxyquinazolin-6-yl)-2-fluoro-3-(1-methylpyrrolidin-2-yl)acrylamide]	≤ 50 nM	≤ 50 nM		
COc1cc(Oc2ccn3ncnc3c2)c(C)cc1Nc1ncnc2ccc(NC(=O)/C(F)=C/[C@H]3CCCN3C)cc12 [Example 92, (R,Z)—N-(4-((4-([1,2,4]triazolo[1,5-a]pyridin-7-yloxy)-2-methoxy-5-methylphenyl)amino)quinazolin-6-yl)-2-fluoro-3-(1-methylpyrrolidin-2-yl)acrylamide]	≤ 50 nM	≤ 50 nM		
COc1cc2ncnc(Nc3cc(C)c(Oc4ccn5ncnc5c4)cc3OC)c2cc1NC(=O)/C(F)=C/[C@H]1CCCN1C [Example 111, (R,Z)—N-(4-((4-([1,2,4]triazolo[1,5-a]pyridin-7-yloxy)-2-methoxy-5-methylphenyl)amino)-7-methoxyquinazolin-6-yl)-2-fluoro-3-(1-methylpyrrolidin-2-yl)acrylamide]	≤ 50 nM	≤ 50 nM	≤ 50 nM	
COc1cc2ncnc(Nc3cc(Cl)c(Oc4ccn5ncnc5c4)cc3OC)c2cc1NC(=O)/C(F)=C/[C@H]1CCCN1C [Example 128, (R,Z)—N-(4-((4-([1,2,4]triazolo[1,5-a]pyridin-7-yloxy)-5-chloro-2-methoxyphenyl)amino)-7-methoxyquinazolin-6-yl)-2-fluoro-3-(1-methylpyrrolidin-2-yl)acrylamide]	≤ 50 nM	≤ 50 nM	≤ 50 nM	GI50 (Ba/F3 HER2 WT cells): ≤ 50 nM; GI50 (Ba/F3 HER2 L755S cells): ≤ 50 nM; GI50 (Ba/F3 HER2 L755P cells): ≤ 50 nM; GI50 (Ba/F3 HER2 T862A cells): ≤ 50 nM; GI50 [1]: ≤ 50 nM
COc1cc2ncnc(Nc3cc(C)c(Oc4ccn5ncnc5c4)cc3OC)c2cc1NC(=O)/C(Cl)=C\[C@H]1CCCN1C [Example 136, (R,E)-N-(4-((4-([1,2,4]triazolo[1,5-a]pyridin-7-yloxy)-2-methoxy-5-methylphenyl)amino)-7-methoxyquinazolin-6-yl)-2-chloro-3-(1-methylpyrrolidin-2-yl)acrylamide]		≤ 50 nM	≤ 50 nM	
COc1cc2ncnc(Nc3ccc(F)c(Cl)c3)c2cc1NC(=O)/C=C/CN1CCCCC1 [dacomitinib]				response of patients with HER2 mutation (HER2 mutant cancers): partial responses
CCOc1cc2ncc(C#N)c(Nc3ccc(OCc4ccccn4)c(Cl)c3)c2cc1NC(=O)/C=C/CN(C)C [neratinib]				objective response rate (ORR) (HER2 mutant cancers; HER2 mutant breast cancer patients): 24%; objective response rate (ORR) (HER2 mutant cancers; HER2 mutant lung cancer patients): 3.8%; objective response rate (ORR) (HER2 mutant cancers; other cancers having HER2 mutations): 0%; response of patients with HER2 mutation (HER2 mutant cancers): partial responses

From patent US20240383923A1, “HETEROARYL DERIVATIVE AND USE THEREOF” (VORONOI INC., priority 2022, published 2024)
